Consider two compounds from the NIST ThermoML archive (doi:10.1016/j.jct.2013.10.016).

± gives the expanded uncertainty stated by the source.

The series in a line: wn = mass fraction of the nth substance listed. The conditions noted are these: Wilhelmy plate method.

With `NCCO` [2-aminoethan-1-ol] + O, the surface tension liquid-gas – broadly, the force per length acting along the surface – is, setting by setting: (293.2 K, w1 = 0.2) 62.6 ± 2 mN/m; (293.2 K, w1 = 0.25) 61.2 ± 2 mN/m; (293.2 K, w1 = 0.3) 60.3 ± 2 mN/m; (303.2 K, w1 = 0.2) 61.8 ± 2 mN/m; (303.2 K, w1 = 0.25) 60.6 ± 2 mN/m; (303.2 K, w1 = 0.3) 59.5 ± 2 mN/m. The surface tension liquid-gas is, setting by setting: (313.2 K, w1 = 0.2) 60.2 ± 2 mN/m; (313.2 K, w1 = 0.25) 59.2 ± 2 mN/m; (313.2 K, w1 = 0.3) 58 ± 2 mN/m; (323.2 K, w1 = 0.2) 58.7 ± 2 mN/m; (323.2 K, w1 = 0.25) 57.7 ± 2 mN/m; (323.2 K, w1 = 0.3) 56.5 ± 2 mN/m.

Consider `OCCNCCO` [diethanolamine] + O, for which the surface tension liquid-gas (293.2 K, w1 = 0.2) came out at 65.1 ± 2 mN/m; the surface tension liquid-gas (293.2 K, w1 = 0.25) is 64.6 ± 2 mN/m; the surface tension liquid-gas (293.2 K, w1 = 0.3) is 62.8 ± 2 mN/m; the surface tension liquid-gas (303.2 K, w1 = 0.2) is listed as 64.4 ± 2 mN/m; the surface tension liquid-gas (303.2 K, w1 = 0.25) came to 62.7 ± 2 mN/m; the surface tension liquid-gas (303.2 K, w1 = 0.3) is 61.3 ± 2 mN/m. In addition, the surface tension liquid-gas is reported as 63.9 ± 2 mN/m (313.2 K, w1 = 0.2); 61.8 ± 2 mN/m (313.2 K, w1 = 0.25); 60.4 ± 2 mN/m (313.2 K, w1 = 0.3); 61.8 ± 2 mN/m (323.2 K, w1 = 0.2); 59.6 ± 2 mN/m (323.2 K, w1 = 0.25); 58.2 ± 2 mN/m (323.2 K, w1 = 0.3).
